Data published in patent US20260365646A1, “AKT1 MODULATORS” (Alterome Therapeutics, Inc., priority 2022, published 2026).
Where two headings read alike, the source gives them in different places.

Biological target: T1, full length AKT E17K (Homo sapiens, UniProt P31749, E17K)
T1 construct: host or cells: HEK-293 (ATCC CRL-1573)
Experiment: NanoBRET Target Engagement (TE) Intracellular Kinase Assay
Assay type: cell-based
Excerpt: The NanoBRET™ Target Engagement (TE) Intracellular Kinase Assays are based on the NanoBRET™ System (Promega Corporation), an energy transfer technique designed to measure molecular proximity in living cells. The NanoBRET™ TE Assays measure the apparent affinity of test compounds by competitive displacement of the NanoBRET™ tracer compound, which is a cell permeable molecule engineered to be reversibly bound to a NanoLuc® luciferase-kinase fusion expressed in cells. For compound screening, when a test compound binds to the selected kinase, the BRET signal is attenuated. […] All cells were evaluated for viability prior to transfection and optimization of the transfection was done prior to experimentation. […] Following transfection, cells were washed and resuspended in Opti-MEM. NanoBRET assays were performed in white, 384-well plates (Corning) at a density of 2×10^5 cells/well. All example compounds were prepared as concentrated stock solutions in DMSO (Sigma-Aldrich). Compounds are dissolved in DMSO to make 10 mM stock solution. […] A Labcyte ECHO 550 compound dispenser was used to facilitate compound transfer directly to cells. Cells were equilibrated for 2 hr with energy transfer probes and example compound prior to BRET measurements. […] For target engagement analysis, the energy transfer probes were added to the cells at concentrations optimized for the target in question (AKT E17K). Following compound incubation, NanoBRET NanoGlo Substrate (Promega Cat #Ni57D) and Extracellular Nanoluc Inhibitor (Promega Cat #N235C) was added according to the manufacturer's recommended protocol, and luminescence was measured on Envision Reader (Perkin Elmer) Multimode Luminometer equipped with 450 nm BPfilter (donor) and 600 nm LPfilter (acceptor), using 0.5 s integration time. Milli-BRET units (mBU) are calculated by multiplying the raw BRET values by 1000. Apparent tracer affinity values (EC50) were determined using the sigmoidal dose-response (variable slope). Competitive displacement data were then plotted and data were fit to determine the EC50 value for each example compound.

[1] = read-out: NanoBRET AKT1E17K EC50, HEK-293 cells transfected with NanoLuc-AKT E17K, competitive displacement of NanoBRET tracer, 2 hr equilibration, 10-point 3-fold dilution

T1 sequence (P31749 whole entry E17K): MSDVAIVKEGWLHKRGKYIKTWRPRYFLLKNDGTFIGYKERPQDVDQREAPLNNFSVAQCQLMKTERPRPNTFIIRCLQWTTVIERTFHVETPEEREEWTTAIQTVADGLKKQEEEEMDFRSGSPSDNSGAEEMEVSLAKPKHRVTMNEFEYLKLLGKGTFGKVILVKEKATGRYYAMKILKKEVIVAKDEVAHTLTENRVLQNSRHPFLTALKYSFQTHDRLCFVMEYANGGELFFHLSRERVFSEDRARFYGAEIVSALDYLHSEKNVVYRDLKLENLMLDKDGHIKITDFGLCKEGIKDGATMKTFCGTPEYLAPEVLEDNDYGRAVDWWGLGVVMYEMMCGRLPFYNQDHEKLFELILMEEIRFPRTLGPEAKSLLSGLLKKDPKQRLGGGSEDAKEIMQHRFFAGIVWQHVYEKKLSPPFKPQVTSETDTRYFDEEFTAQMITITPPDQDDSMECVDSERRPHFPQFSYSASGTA

COc1c(N[C@H]2CCCN(Cc3ccc(-n4c(-c5cccnc5N)nc5ccc(-c6ccccc6)nc54)cc3)C2)c(=O)c1=O [Example 29, (S)-3-((1-(4-(2-(2-Aminopyridin-3-yl)-5-phenyl-3H-imidazo[4,5-b]pyridin-3-yl)benzyl)piperidin-3-yl)amino)-4-methoxycyclobut-3-ene-1,2-dione]
EC50: 60 to 600 nM

COc1c(NC2CCC3(CC2)CN(Cc2ccc(-n4c(-c5cccnc5N)nc5ccc(-c6ccccc6)nc54)cc2)C3)c(=O)c1=O [Example 98, 3-((2-(4-(2-(2-aminopyridin-3-yl)-5-phenyl-3H-imidazo[4,5-b]pyridin-3-yl)benzyl)-2-azaspiro[3.5]nonan-7-yl)amino)-4-methoxycyclobut-3-ene-1,2-dione]
EC50 [1]: < 15 nM

Nc1ncccc1-c1nc2ccc(-c3ccccc3)nc2n1-c1ccc(CN2CCC(Nc3c(OC4CCCC4)c(=O)c3=O)CC2)cc1 [Example 14, 3-((1-(4-(2-(2-Aminopyridin-3-yl)-5-phenyl-3H-imidazo[4,5-b]pyridin-3-yl)benzyl)piperidin-4-yl)amino)-4-(cyclopentyloxy)cyclobut-3-ene-1,2-dione]
EC50: 60 to 600 nM

COc1c(N2CCN(Cc3ccc(-n4c(-c5cccnc5N)nc5ccc(-c6cccc(NC(C)=O)c6)nc54)cc3)CC2)c(=O)c1=O [Example 7, N-(3-(2-(2-Aminopyridin-3-yl)-3-(4-((4-(2-methoxy-3,4-dioxocyclobut-1-en-1-yl)piperazin-1-yl)methyl)phenyl)-3H-imidazo[4,5-b]pyridin-5-yl)phenyl)acetamide]
EC50: 15 to 60 nM

COc1c(NC2CCN(C(=O)c3ccc(-n4c(-c5cccnc5N)nc5ccc(-c6ccccc6)nc54)cc3)CC2)c(=O)c1=O [Example 28, 3-((1-(4-(2-(2-Aminopyridin-3-yl)-5-phenyl-3H-imidazo[4,5-b]pyridin-3-yl)benzoyl)piperidin-4-yl)amino)-4-methoxycyclobut-3-ene-1,2-dione]
EC50: > 600 nM

COc1c(N(C)C2CCN(C(C)c3ccc(-n4c(-c5cccnc5N)nc5ccc(-c6ccccc6)nc54)cc3)CC2)c(=O)c1=O (stereo not shown) [Example 90, 3-((1-(1-(4-(2-(2-aminopyridin-3-yl)-5-phenyl-3H-imidazo[4,5-b]pyridin-3-yl)phenyl)ethyl)piperidin-4-yl)(methyl)amino)-4-methoxycyclobut-3-ene-1,2-dione]
EC50 [1]: < 15 nM

COc1c(N[C@@H]2CCN(Cc3ccc(-n4c(-c5cccnc5N)nc5ccc(-c6ccccc6)nc54)cc3)C2)c(=O)c1=O [Example 50, (R)-3-((1-(4-(2-(2-Aminopyridin-3-yl)-5-phenyl-3H-imidazo[4,5-b]pyridin-3-yl)benzyl)pyrrolidin-3-yl)amino)-4-methoxycyclobut-3-ene-1,2-dione]
EC50: 15 to 60 nM

COc1c(N2CCC3(CN(Cc4ccc(-n5c(-c6cccnc6N)nc6ccc(-c7ccccc7)nc65)cc4)C3)C2)c(=O)c1=O [Example 42, 3-(2-(4-(2-(2-Aminopyridin-3-yl)-5-phenyl-3H-imidazo[4,5-b]pyridin-3-yl)benzyl)-2,6-diazaspiro[3.4]octan-6-yl)-4-methoxycyclobut-3-ene-1,2-dione]
EC50: 15 to 60 nM

CSc1c(N(C2CC2)C2CCN(Cc3ccc(-n4c(-c5cccnc5N)nc5ccc(-c6ccccc6)nc54)cc3)CC2)c(=O)c1=O [Example 95, 3-((1-(4-(2-(2-aminopyridin-3-yl)-5-phenyl-3H-imidazo[4,5-b]pyridin-3-yl)benzy1)piperidin-4-yl)(cyclopropyl)amino)-4-(methylthio)cyclobut-3-ene-1,2-dione]
EC50: 15 to 60 nM

Nc1ncccc1-c1nc2ccc(-c3ccccc3)nc2n1-c1ccc(CN2CCN(c3c(OC4CCCC4)c(=O)c3=O)CC2)cc1 [Example 26, 3-(4-(4-(2-(2-aminopyridin-3-yl)-5-phenyl-3H-imidazo[4,5-b]pyridin-3-yl)benzyl)piperazin-1-yl)-4-(cyclopentyloxy)cyclobut-3-ene-1,2-dione]
EC50: > 600 nM

Nc1ncccc1-c1nc2ccc(-c3ccccc3)nc2n1-c1ccc(CN2CCC(Nc3c(S)c(=O)c3=O)CC2)cc1 [Example 44, 3-((1-(4-(2-(2-aminopyridin-3-yl)-5-phenyl-3H-imidazo[4,5-b]pyridin-3-yl)benzyl)piperidin-4-yl)amino)-4-mercaptocyclobut-3-ene-1,2-dione]
EC50: 60 to 600 nM

CCOc1c(N2CCC3(CC2)CN(Cc2ccc(-n4c(-c5cccnc5N)nc5ccc(-c6ccccc6)nc54)cc2)C3)c(=O)c1=O [Example 59, 3-(2-(4-(2-(2-Aminopyridin-3-yl)-5-phenyl-3H-imidazo[4,5-b]pyridin-3-yl)benzyl)-2,7-diazaspiro[3.5]nonan-7-yl)-4-ethoxycyclobut-3-ene-1,2-dione]
EC50: 15 to 60 nM

COc1c(N2CCN(Cc3ccc(-n4c(-c5cccnc5N)nc5ccc(-c6ccccc6)nc54)cc3)C[C@H]2CO)c(=O)c1=O [Example 80, (S)-3-(4-(4-(2-(2-aminopyridin-3-yl)-5-phenyl-3H-imidazo[4,5-b]pyridin-3-yl)benzyl)-2-(hydroxymethyl)piperazin-1-yl)-4-methoxycyclobut-3-ene-1,2-dione]
EC50: 60 to 600 nM

COc1c(N2C[C@@H]3C[C@H]2CN3Cc2ccc(-n3c(-c4cccnc4N)nc4ccc(-c5ccccc5)nc43)cc2)c(=O)c1=O [Example 75, 3-((1S,4S)-5-(4-(2-(2-aminopyridin-3-yl)-5-phenyl-3H-imidazo[4,5-b]pyridin-3-yl)benzyl)-2,5-diazabicyclo[2.2.1]heptan-2-y1)-4-methoxycyclobut-3-ene-1,2-dione]
EC50 [1]: < 15 nM

CSc1c(N2C[C@H]3CN(Cc4ccc(-n5c(-c6cccnc6N)nc6ccc(-c7ccccc7)nc65)cc4)C[C@H]3C2)c(=O)c1=O [Example 87, 3-((3aR,6aS)-5-(4-(2-(2-aminopyridin-3-yl)-5-phenyl-3H-imidazo[4,5-b]pyridin-3-yl)benzyl)hexahydropyrrolo[3,4-c]pyrrol-2(1H)-yl)-4-(methylthio)cyclobut-3-ene-1,2-dione]
EC50 [1]: < 15 nM

COc1c(N2CC3CCC(C2)N3Cc2ccc(-n3c(-c4cccnc4N)nc4ccc(-c5ccccc5)nc43)cc2)c(=O)c1=O [Example 71, 3-(8-(4-(2-(2-aminopyridin-3-yl)-5-phenyl-3H-imidazo[4,5-b]pyridin-3-yl)benzyl)-3,8-diazabicyclo[3.2.1]octan-3-yl)-4-methoxycyclobut-3-ene-1,2-dione]
EC50 [1]: < 15 nM

CC(C)Oc1c(NC2CCN(Cc3ccc(-n4c(-c5cccnc5N)nc5ccc(-c6ccccc6)nc54)cc3)CC2)c(=O)c1=O [Example 11, 3-((1-(4-(2-(2-aminopyridin-3-yl)-5-phenyl-3H-imidazo[4,5-b]pyridin-3-yl)benzyl)piperidin-4-yl)amino)-4-isopropoxycyclobut-3-ene-1,2-dione]
EC50: 15 to 60 nM

COc1c(N2[C@H](C)CN(Cc3ccc(-n4c(-c5cccnc5N)nc5ccc(-c6ccccc6)nc54)cc3)C[C@H]2C)c(=O)c1=O [Example 69, 3-((2R,6R)-4-(4-(2-(2-aminopyridin-3-yl)-5-phenyl-3H-imidazo[4,5-b]pyridin-3-yl)benzyl)-2,6-dimethylpiperazin-1-yl)-4-methoxycyclobut-3-ene-1,2-dione]
EC50: 60 to 600 nM

CCSc1c(NC2CCN(Cc3ccc(-n4c(-c5cccnc5N)nc5ccc(-c6ccccc6)nc54)cc3)CC2)c(=O)c1=O [Example 39, 3-((1-(4-(2-(2-Aminopyridin-3-yl)-5-phenyl-3H-imidazo[4,5-b]pyridin-3-yl)benzyl)piperidin-4-yl)amino)-4-(ethylthio)cyclobut-3-ene-1,2-dione]
EC50 [1]: < 15 nM

COc1c(N2CC[C@@]3(CCN(Cc4ccc(-n5c(-c6cccnc6N)nc6ccc(-c7ccccc7)nc65)cc4)C3)C2)c(=O)c1=O [Example 62, (R)-3-(7-(4-(2-(2-Aminopyridin-3-yl)-5-phenyl-3H-imidazo[4,5-b]pyridin-3-yl)benzyl)-2,7-diazaspiro[4.4]nonan-2-yl)-4-methoxycyclobut-3-ene-1,2-dione]
EC50 [1]: < 15 nM

CCSc1c(N2C[C@H]3CN(Cc4ccc(-n5c(-c6cccnc6N)nc6ccc(-c7ccccc7)nc65)cc4)C[C@H]3C2)c(=O)c1=O [Example 88, 3-((3aR,6aS)-5-(4-(2-(2-aminopyridin-3-yl)-5-phenyl-3H-imidazo[4,5-b]pyridin-3-yl)benzyl)hexahydropyrrolo[3,4-c]pyrrol-2(1H)-yl)-4-(ethylthio)cyclobut-3-ene-1,2-dione]
EC50 [1]: < 15 nM

[2H]C([2H])([2H])Oc1c(N2CCN(Cc3ccc(-n4c(-c5cccnc5N)nc5ccc(-c6ccccc6)nc54)cc3)CC2)c(=O)c1=O [Example 23, 3-(4-(4-(2-(2-Aminopyridin-3-yl)-5-phenyl-3H-imidazo[4,5-b]pyridin-3-yl)benzyl)piperazin-1-yl)-4-(methoxy-d3)cyclobut-3-ene-1,2-dione]
EC50: 15 to 60 nM
